Assay results as given in article PMC9916658, “Design and Synthesis of New Quinazolin-4-one Derivatives with Negative mGlu7 Receptor Modulation Activity and Antipsychotic-Like Properties” (International Journal of Molecular Sciences, 2023).
Like-named read-outs stand apart in the source and are kept apart here.

Tests used:
[1] = molecular target: T1, recombinant human mGlu7 receptor (FAST-0154C) (Homo sapiens, UniProt Q14831); assay: NAM mGlu7 activity on CHO-K1 cell line, cAMP HTRF (EuroscreenFast protocol); format: cell-based; conditions: CHO-K1 human mGlu7, agonist L-AP4 at EC80; for % inhibition at maximal concentration: range 1 nM – 25 µM; for IC50: read-out: IC50 (CHO-K1, Figure S4)
T1 construct: host or cells: CHO-K1
Source text: with inducible expression of human mGlu7 receptor. […]
2.2. NAM mGlu7 receptor activity on CHO-K1 cell line according to EuroscreenFast protocol
ALX-065 and ALX-171 were testing for negative allosteric modulator (NAM) activity on alternative […]
mGlu7 cell line (recombinant human mGlu7 receptor (FAST-0154C) using cAMP HTRF functional assay) […]
by EuroscreenFast company according to the provided methodology.
Receptor Accession Cell line Reference Reference
Number agonist antagonist
Compounds were tested for NAM activity at the human mGlu7 receptor (FAST-0154C) in dose […]
response and in duplicates (range concentration: 1 nM – 25 µM) […]
cAMP HTRF assay for Gi coupled receptor
CHO-K1 cells expressing recombinant human mGlu7 receptor (FAST-0154C) grown prior to the test […]
inmedia without antibiotic are detached by gentle flushing with PBS-EDTA (5 mM EDTA), recovered […]
by centrifugation and resuspended in assay buffer (KRH: 5 mM KCl, 1.25 mM MgSO4, 124 mM NaCl, […]
25 mM HEPES, 13.3 mM Glucose, 1.25 mM KH2PO4, 1.45 mM CaCl2, 0.5 g/L BSA, supplemented with 1 […]
Dose response curves are performed in parallel with the reference compounds.
For antagonist/NAM test (96 well): 12 µl of cells are mixed with 6 µl of the test compound at increasing concentrations and then incubated 10 min. Thereafter 6 µl of the mix of the forskolin and reference agonist is added at a final concentration corresponding to the historical EC80. The plates are then incubated for 30 min at room temperature. After addition of the lysis buffer and 1 hour incubation, cAMP concentrations are estimated, according to the manufacturer specification, with the HTRF kit. […]

[2] = Pharmacokinetics and brain uptake in mice after i.p. administration; format: in vivo, mouse (Albino Swiss); conditions: 10 mg/kg i.p.; for Tmax / AUC(0-t) / half-life / Cmax: ip
Description: Compounds were administered to mice at a dose of 10 mg/kg i.p. Plasma and tissue samples were collected at 0.25, 0.50, 1.0, 2.0, 4.0, 6.0, and 24 h. Plasma and tissue samples from all drug-treated animals were thawed at room temperature prior to use. The standard protocol for sample preparation was used: 200 μL of acetonitrile was added to the Eppendorf tubes with 50 μL of studied plasma samples or tissue homogenate. Samples were mixed for 5 min on a mixer at 25 °C and 1400 rpm. The tubes were then centrifuged at 2000× g for 15 min at 4 °C. A total of 180 μL of each supernatant was transferred to a plate well. Finally, each sample was injected into the LC–MS column. Calibration curve serial dilution method: Plasma was spiked with a standard at different concentrations. Acetonitrile was added. After mixing and centrifugation, the supernatant was collected.
Chromatographic conditions. Plasma and tissue samples from all drug-treated animals at selected time points were analyzed using a previously developed nonvalidated LC–MS/MS method. […] The LC–MS analysis was carried out on a Bruker amaZon SL mass spectrometer using the positive/negative ion ESI mode. Chromatographic separation was achieved on an Ascentis Express C18 column (5 cm × 2.1 mm, 2.7 μM, Supelco Technologies) at room temperature with a thermostatted column oven. A gradient elution of eluents A (acetonitrile (LiChrosolv, Reag. Ph Eur) + 0.1% formic acid (Sigma Aldrich, 98–100%)) and B (water + 0.1% formic acid) were used for separation. The flow rate was set at 1 mL/min. The injection volume was 20 μL, and the time of injection was 4 min.
Mass spectrometric conditions. An ion trap mass spectrometer (Bruker amaZon SL, Bruker, Bremen, Germany) was equipped with an electrospray source operating in the positive/negative ion mode. Data were collected and processed using Bruker Quant Analysis (Bruker, Bremen, Germany) software. A quantification of the analytes was performed in the SIM mode.

[3] = Metabolic stability in mouse microsomal fraction; format: in vitro ADME; conditions: for MML (metabolic stability liver microsome mouse): 1 µM, mouse microsomes 0.3 mg/mL, NADPH-regenerating system; for microsomal CLint at 1 µM: pH 7.4, mouse liver microsomes
Description: A metabolic stability assay was performed using a mouse microsomal fraction (phase I of metabolism) obtained from XenoTech (Kansas City, MO, USA). Compounds for metabolic stability testing were prepared as 10 mM stock solutions in DMSO. Compounds were incubated in triplicate at a 1 µM initial concentration with the microsomal fraction in the presence of NRS (NADPH-regenerating system, 1.3 mM). The final microsomal incubation (0.3 mg/mL) contained the components mentioned below in a pH 7.4 phosphate buffer. Control incubations were conducted without cofactors. The reference compound verapamil was used as a positive control. Incubations were carried out for 1 h on 96-well plates using a heated (+37 °C) orbital shaker (350 rpm). After incubation, the reaction was quenched through the addition of cold acetonitrile. The plate containing the samples was centrifuged at 2000 rpm for 15 min at 4 °C. The supernatants were analyzed using LC–MS.
The HPLC–MS consisted of a Dionex, Ultimate 3000 HPLC, and a Bruker Daltonics amaZon SL mass spectrometer (ESI-IT). The conditions were as follows: Column HPLC Ascentis Express C18 (5 cm × 2.1 mm, 2.7 µm) and an injection volume of 20 µL. An acetonitrile gradient was used with 0.1% formic acid in water at a constant flow rate of 1 mL/min. The programming was as follows: 0–0.5 min 5% ACN, 0.5–3.0 increase of 5–95%, 3.0–3.3 remaining at 95% ACN, 3.3–3.4 min decrease of 95–5% ACN, and 3.4–4.0 min 5% ACN. Samples were analyzed in a single-ion monitoring scan mode in positive mode. The conditions of the main parameters were as follows: a trap drive of 48.2, capillary exit voltage of 140.0 V, dry temperature (set) of 300 °C, nebulizer pressure (set) of 40.00 psi, dry gas flow (set) of 9.00 L/min HV capillary voltage of −4500 V, HV end-plate offset voltage of −500 V.
The percent loss of compounds was calculated through the normalization of the peak area against time 0, where the peak area at T0 was 100%. The elimination rate constant (h) was determined from the plot of ln (percent loss of compound) as a time function and equal to the minor value of the linear curve slope.

[4] = Albino Swiss, mouse, plasma and brain, mice, read-out: Tmax (plasma and brain) (converted)
[5] = mouse Albino Swiss, brain, read-out: AUC0-t, brain
[6] = mouse Albino Swiss, brain, read-out: T1/2, brain (converted)
[7] = mouse Albino Swiss, brain, read-out: Tmax, brain
[8] = mouse Albino Swiss, plasma, read-out: AUC0-t, plasma
[9] = mouse Albino Swiss, plasma, read-out: T1/2, plasma (converted)
[10] = mouse Albino Swiss, plasma, read-out: Tmax, plasma

T1 sequence (Q14831 35-915): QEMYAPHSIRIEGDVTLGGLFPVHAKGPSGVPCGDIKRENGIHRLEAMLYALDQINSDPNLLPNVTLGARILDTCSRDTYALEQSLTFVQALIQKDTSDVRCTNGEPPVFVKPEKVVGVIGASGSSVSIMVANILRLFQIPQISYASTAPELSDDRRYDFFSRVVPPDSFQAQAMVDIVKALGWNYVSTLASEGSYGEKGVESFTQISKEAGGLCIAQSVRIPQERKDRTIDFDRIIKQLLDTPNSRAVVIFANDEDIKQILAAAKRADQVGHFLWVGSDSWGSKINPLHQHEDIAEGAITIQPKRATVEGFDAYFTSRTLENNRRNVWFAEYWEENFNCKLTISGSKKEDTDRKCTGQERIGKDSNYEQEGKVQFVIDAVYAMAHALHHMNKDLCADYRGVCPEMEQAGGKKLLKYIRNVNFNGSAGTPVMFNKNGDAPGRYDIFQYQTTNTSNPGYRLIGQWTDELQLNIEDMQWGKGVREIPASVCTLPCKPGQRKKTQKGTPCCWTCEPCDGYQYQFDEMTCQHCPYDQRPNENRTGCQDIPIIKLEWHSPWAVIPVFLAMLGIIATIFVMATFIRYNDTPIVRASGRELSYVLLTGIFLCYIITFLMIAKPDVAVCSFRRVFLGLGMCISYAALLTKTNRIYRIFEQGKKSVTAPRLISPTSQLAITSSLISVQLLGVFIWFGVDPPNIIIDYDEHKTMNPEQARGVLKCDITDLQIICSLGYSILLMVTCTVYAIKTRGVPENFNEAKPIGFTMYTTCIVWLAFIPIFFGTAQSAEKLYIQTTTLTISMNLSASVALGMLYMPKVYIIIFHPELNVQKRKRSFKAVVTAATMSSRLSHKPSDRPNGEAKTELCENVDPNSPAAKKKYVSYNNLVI

% inhibition at maximal concentration [1] [%]	IC50 [1] [µM]	Tmax [2, 4] [min]	AUC(0-t) [2, 5] [µM·h]	half-life [2, 6] [min]	Tmax [2, 7] [min]	Cmax ([2]; mouse Albino Swiss, plasma) [µM]	AUC(0-t) [2, 8] [µM·h]	half-life [2, 9] [min]	Tmax [2, 10] [min]	Cmax, brain ([2]; mouse Albino Swiss, brain) [µM/L]	MML (metabolic stability liver microsome mouse) [3] [% remaining after 60 min]	microsomal CLint at 1 µM [3] [µL/min/mg]	Structure (SMILES)
99.62	3.74	15	1.32	29.4	15	2.28	1.99	78.6	15	1.81	0.81	268	Cn1c(-c2ccccc2Cl)nc2ccc(-c3ccccc3)cc2c1=O [ALX-065, 2-(2-chlorophenyl)-3-methyl-6-phenylquinazolin-4(3H)-one]
105.21	5.6	15	13.8	334	15	4.46	13.4	312	30	2.52	54.01	34.2	COc1cccc(-c2ccc3nc(-c4ccccc4Cl)n(C)c(=O)c3c2)c1OC [ALX-171, 2-(2-chlorophenyl)-6-(2,3-dimethoxyphenyl)-3-methylquinazolin-4(3H)-one]

Structure (SMILES)	% inhibition at maximal concentration [1] [%]	IC50 [1] [µM]	Tmax [2, 4] [min]	AUC(0-t) [2, 5] [µM·h]	half-life [2, 6] [min]	Tmax [2, 7] [min]	Cmax ([2]; mouse Albino Swiss, plasma) [µM]	AUC(0-t) [2, 8] [µM·h]	half-life [2, 9] [min]	Tmax [2, 10] [min]	Cmax, brain ([2]; mouse Albino Swiss, brain) [µM/L]	MML (metabolic stability liver microsome mouse) [3] [% remaining after 60 min]	microsomal CLint at 1 µM [3] [µL/min/mg]
CCc1nc2c(o1)CC(c1ccc(C)cc1C)CC2=O (centres unmarked) [ADX71743, reference compound]	62.42	0.43		2.27				1.9			3.38	0.01	
